Reference: publication PMC6009956, “Design, synthesis and biological activity of N^4-phenylsubstituted-7H-pyrrolo[2,3-d]pyrimidin-4-amines as dual inhibitors of aurora kinase A and epidermal growth factor receptor kinase” (Journal of Enzyme Inhibition and Medicinal Chemistry, 2017)
Where two headings read alike, the source gives them in different places.

Legend:
EGFR = EGFR (Homo sapiens, UniProt P00533); assay: ADP-Glo kinase assay, EGFR; assay type: biochemical; parameters: purchased BPS Bioscience (assay run externally by the vendor)
aurora A kinase (AURKA) = molecular target: T1, aurora A kinase (AURKA) (Homo sapiens, UniProt O14965); assay: ADP-Glo kinase assay, Aurora A; assay type: biochemical
T1 construct: purchased BPS Bioscience (assay run externally by the vendor)
T1 sequence (O14965 1-403): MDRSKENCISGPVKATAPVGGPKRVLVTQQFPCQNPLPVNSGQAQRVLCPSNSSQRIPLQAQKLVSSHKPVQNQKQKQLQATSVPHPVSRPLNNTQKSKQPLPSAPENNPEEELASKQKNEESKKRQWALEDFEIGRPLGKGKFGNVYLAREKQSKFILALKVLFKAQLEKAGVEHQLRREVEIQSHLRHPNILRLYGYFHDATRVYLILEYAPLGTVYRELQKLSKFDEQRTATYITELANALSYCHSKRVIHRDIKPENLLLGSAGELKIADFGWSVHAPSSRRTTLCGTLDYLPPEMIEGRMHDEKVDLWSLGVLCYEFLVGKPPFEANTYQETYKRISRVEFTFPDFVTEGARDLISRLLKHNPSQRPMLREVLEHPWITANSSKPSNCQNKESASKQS

[1] = 10 µM ATP, triplicate, read-out: EGFR IC50 ± SD
[2] = 10 µM ATP/0.2 mg/ml Poly-Glu-Tyr, read-out: EGFR IC50 (dose-response curve, supplement)
[3] = 10 µM ATP, triplicate, read-out: AURKA IC50 ± SD
[4] = 10 µM ATP/0.2 mg/ml Kemptide, read-out: Aurora A IC50 (dose-response curve, supplement)

EGFR, sequence (P00533 25-1210): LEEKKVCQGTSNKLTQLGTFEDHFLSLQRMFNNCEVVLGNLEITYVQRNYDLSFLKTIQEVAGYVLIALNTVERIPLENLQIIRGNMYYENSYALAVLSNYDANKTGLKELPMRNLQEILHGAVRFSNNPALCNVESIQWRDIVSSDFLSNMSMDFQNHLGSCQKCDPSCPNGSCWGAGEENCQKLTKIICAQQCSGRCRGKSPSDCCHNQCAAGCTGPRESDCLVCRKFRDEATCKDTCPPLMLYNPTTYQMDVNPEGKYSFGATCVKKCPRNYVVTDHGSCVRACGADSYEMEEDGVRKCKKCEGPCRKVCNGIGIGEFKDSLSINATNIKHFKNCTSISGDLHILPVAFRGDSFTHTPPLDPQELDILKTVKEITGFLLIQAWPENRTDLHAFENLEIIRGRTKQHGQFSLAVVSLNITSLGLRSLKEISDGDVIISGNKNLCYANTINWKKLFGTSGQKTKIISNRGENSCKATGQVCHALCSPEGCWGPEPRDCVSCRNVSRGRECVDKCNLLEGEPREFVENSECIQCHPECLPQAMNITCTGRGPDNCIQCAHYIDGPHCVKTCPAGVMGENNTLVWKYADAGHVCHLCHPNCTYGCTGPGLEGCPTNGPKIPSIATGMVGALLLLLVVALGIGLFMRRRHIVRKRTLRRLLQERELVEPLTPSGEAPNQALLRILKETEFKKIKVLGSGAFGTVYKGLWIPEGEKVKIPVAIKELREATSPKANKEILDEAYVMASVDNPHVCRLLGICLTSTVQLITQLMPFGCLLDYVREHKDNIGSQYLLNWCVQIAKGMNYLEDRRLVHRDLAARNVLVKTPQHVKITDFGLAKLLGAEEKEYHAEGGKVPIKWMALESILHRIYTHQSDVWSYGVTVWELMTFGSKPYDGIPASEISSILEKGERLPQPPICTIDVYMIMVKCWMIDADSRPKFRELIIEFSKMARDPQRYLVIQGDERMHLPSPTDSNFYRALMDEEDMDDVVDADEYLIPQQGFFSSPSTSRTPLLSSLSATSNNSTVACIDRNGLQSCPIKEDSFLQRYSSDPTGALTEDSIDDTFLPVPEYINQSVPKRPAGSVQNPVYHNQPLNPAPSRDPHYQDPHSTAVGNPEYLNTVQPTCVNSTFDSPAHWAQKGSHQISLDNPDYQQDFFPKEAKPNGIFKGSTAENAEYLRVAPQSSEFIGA

## Cc1ccccc1Nc1ncnc2[nH]ccc12 [Compound 15, N^4-(2-methylphenyl)-7H-pyrrolo[2,3-d]pyrimidin-4-amine]
EGFR; [1]
  IC50: 1.23 ± 0.201 µM
EGFR; [2]
  IC50: 1.2 µM
EGFR; Log[nM] 0
  EGFR % Activity Set1: 97%
  EGFR % Activity Set2: 98%
  EGFR % Activity Set3: 121%
EGFR; Log[nM] 1.0
  EGFR % Activity Set1: 109%
  EGFR % Activity Set2: 101%
  EGFR % Activity Set3: 128%
EGFR; Log[nM] 1.5
  EGFR % Activity Set1: 113%
  EGFR % Activity Set2: 108%
  EGFR % Activity Set3: 122%
EGFR; Log[nM] 2.0
  EGFR % Activity Set1: 111%
  EGFR % Activity Set2: 102%
  EGFR % Activity Set3: 99%
EGFR; Log[nM] 2.5
  EGFR % Activity Set1: 77%
  EGFR % Activity Set2: 82%
  EGFR % Activity Set3: 84%
EGFR; Log[nM] 3.0
  EGFR % Activity Set1: 55%
  EGFR % Activity Set2: 59%
  EGFR % Activity Set3: 52%
EGFR; Log[nM] 3.5
  EGFR % Activity Set1: 20%
  EGFR % Activity Set2: 24%
  EGFR % Activity Set3: 23%
EGFR; Log[nM] 4.0
  EGFR % Activity Set1: 12%
  EGFR % Activity Set2: 12%
  EGFR % Activity Set3: 10%
EGFR; Log[nM] 4.5
  EGFR % Activity Set1: 4%
  EGFR % Activity Set2: 5%
  EGFR % Activity Set3: 4%
EGFR; Log[nM] 5.0
  EGFR % Activity Set1: 4%
  EGFR % Activity Set2: 3%
  EGFR % Activity Set3: 3%
Aurora A kinase (AURKA); [3]
  IC50: 8.56 ± 1.74 µM
Aurora A kinase (AURKA); [4]
  IC50: 8.5 µM
Aurora A kinase (AURKA); Log[nM] 0
  Aurora A % Activity Set1: 95%
  Aurora A % Activity Set2: 97%
  Aurora A % Activity Set3: 102%
Aurora A kinase (AURKA); Log[nM] 1.0
  Aurora A % Activity Set1: 102%
  Aurora A % Activity Set2: 103%
  Aurora A % Activity Set3: 102%
Aurora A kinase (AURKA); Log[nM] 1.5
  Aurora A % Activity Set1: 105%
  Aurora A % Activity Set2: 105%
  Aurora A % Activity Set3: 107%
Aurora A kinase (AURKA); Log[nM] 2.0
  Aurora A % Activity Set1: 98%
  Aurora A % Activity Set2: 107%
  Aurora A % Activity Set3: 109%
Aurora A kinase (AURKA); Log[nM] 2.5
  Aurora A % Activity Set1: 103%
  Aurora A % Activity Set2: 103%
  Aurora A % Activity Set3: 107%
Aurora A kinase (AURKA); Log[nM] 3.0
  Aurora A % Activity Set1: 92%
  Aurora A % Activity Set2: 102%
  Aurora A % Activity Set3: 98%
Aurora A kinase (AURKA); Log[nM] 3.5
  Aurora A % Activity Set1: 66%
  Aurora A % Activity Set2: 73%
  Aurora A % Activity Set3: 70%
Aurora A kinase (AURKA); Log[nM] 4.0
  Aurora A % Activity Set1: 44%
  Aurora A % Activity Set2: 48%
  Aurora A % Activity Set3: 48%
Aurora A kinase (AURKA); Log[nM] 4.5
  Aurora A % Activity Set1: 18%
  Aurora A % Activity Set2: 18%
  Aurora A % Activity Set3: 19%
Aurora A kinase (AURKA); Log[nM] 5.0
  Aurora A % Activity Set1: 11%
  Aurora A % Activity Set2: 11%
  Aurora A % Activity Set3: 11%

## c1ccc(Nc2ncnc3[nH]ccc23)cc1 [Compound 1, N^4-phenyl-7H-pyrrolo[2,3-d]pyrimidine-4-amine]
EGFR; [1]
  IC50: 0.254 ± 0.026 µM
EGFR; [2]
  IC50: 0.253 µM
EGFR; Log[nM] 0
  EGFR % Activity Set1: 103%
  EGFR % Activity Set2: 98%
  EGFR % Activity Set3: 103%
EGFR; Log[nM] 1.0
  EGFR % Activity Set1: 101%
  EGFR % Activity Set2: 110%
  EGFR % Activity Set3: 106%
EGFR; Log[nM] 1.5
  EGFR % Activity Set1: 92%
  EGFR % Activity Set2: 91%
  EGFR % Activity Set3: 94%
EGFR; Log[nM] 2.0
  EGFR % Activity Set1: 66%
  EGFR % Activity Set2: 71%
  EGFR % Activity Set3: 76%
EGFR; Log[nM] 2.5
  EGFR % Activity Set1: 39%
  EGFR % Activity Set2: 42%
  EGFR % Activity Set3: 40%
EGFR; Log[nM] 3.0
  EGFR % Activity Set1: 24%
  EGFR % Activity Set2: 22%
  EGFR % Activity Set3: 22%
EGFR; Log[nM] 3.5
  EGFR % Activity Set1: 9%
  EGFR % Activity Set2: 9%
  EGFR % Activity Set3: 9%
EGFR; Log[nM] 4.0
  EGFR % Activity Set1: 4%
  EGFR % Activity Set2: 5%
  EGFR % Activity Set3: 5%
EGFR; Log[nM] 4.5
  EGFR % Activity Set1: 2%
  EGFR % Activity Set2: 2%
  EGFR % Activity Set3: 2%
EGFR; Log[nM] 5.0
  EGFR % Activity Set1: 1%
  EGFR % Activity Set2: 1%
  EGFR % Activity Set3: 1%
Aurora A kinase (AURKA); [3]
  IC50: 5.58 ± 0.66 µM
Aurora A kinase (AURKA); [4]
  IC50: 5.6 µM
Aurora A kinase (AURKA); Log[nM] 0
  Aurora A % Activity Set1: 91%
  Aurora A % Activity Set2: 91%
  Aurora A % Activity Set3: 92%
Aurora A kinase (AURKA); Log[nM] 1.0
  Aurora A % Activity Set1: 87%
  Aurora A % Activity Set2: 90%
  Aurora A % Activity Set3: 91%
Aurora A kinase (AURKA); Log[nM] 1.5
  Aurora A % Activity Set1: 93%
  Aurora A % Activity Set2: 98%
  Aurora A % Activity Set3: 100%
Aurora A kinase (AURKA); Log[nM] 2.0
  Aurora A % Activity Set1: 96%
  Aurora A % Activity Set2: 97%
  Aurora A % Activity Set3: 100%
Aurora A kinase (AURKA); Log[nM] 2.5
  Aurora A % Activity Set1: 99%
  Aurora A % Activity Set2: 103%
  Aurora A % Activity Set3: 104%
Aurora A kinase (AURKA); Log[nM] 3.0
  Aurora A % Activity Set1: 86%
  Aurora A % Activity Set2: 90%
  Aurora A % Activity Set3: 93%
Aurora A kinase (AURKA); Log[nM] 3.5
  Aurora A % Activity Set1: 63%
  Aurora A % Activity Set2: 70%
  Aurora A % Activity Set3: 70%
Aurora A kinase (AURKA); Log[nM] 4.0
  Aurora A % Activity Set1: 28%
  Aurora A % Activity Set2: 31%
  Aurora A % Activity Set3: 32%
Aurora A kinase (AURKA); Log[nM] 4.5
  Aurora A % Activity Set1: 11%
  Aurora A % Activity Set2: 12%
  Aurora A % Activity Set3: 13%
Aurora A kinase (AURKA); Log[nM] 5.0
  Aurora A % Activity Set1: 5%
  Aurora A % Activity Set2: 5%
  Aurora A % Activity Set3: 5%

## COc1ccc(Nc2ncnc3[nH]ccc23)cc1 [Compound 6, N^4-(4-methoxyphenyl)-7H-pyrrolo[2,3-d]pyrimidine-4-amine]
EGFR
  EGFR inhibition (in words): micromolar EGFR inhibition
  Fold better for EGFR over AURKA: 2 fold
  Fold less potent than staurosporine against EGFR: seven-fold
EGFR; [1]
  IC50: 2.94 ± 0.0944 µM
EGFR; [2]
  IC50: 3 µM
EGFR; Log[nM] 0
  EGFR % Activity Set1: 98%
  EGFR % Activity Set2: 102%
  EGFR % Activity Set3: 105%
EGFR; Log[nM] 1.0
  EGFR % Activity Set1: 102%
  EGFR % Activity Set2: 110%
  EGFR % Activity Set3: 108%
EGFR; Log[nM] 1.5
  EGFR % Activity Set1: 105%
  EGFR % Activity Set2: 106%
  EGFR % Activity Set3: 108%
EGFR; Log[nM] 2.0
  EGFR % Activity Set1: 99%
  EGFR % Activity Set2: 102%
  EGFR % Activity Set3: 104%
EGFR; Log[nM] 2.5
  EGFR % Activity Set1: 96%
  EGFR % Activity Set2: 93%
  EGFR % Activity Set3: 97%
EGFR; Log[nM] 3.0
  EGFR % Activity Set1: 72%
  EGFR % Activity Set2: 79%
  EGFR % Activity Set3: 78%
EGFR; Log[nM] 3.5
  EGFR % Activity Set1: 43%
  EGFR % Activity Set2: 48%
  EGFR % Activity Set3: 43%
EGFR; Log[nM] 4.0
  EGFR % Activity Set1: 23%
  EGFR % Activity Set2: 24%
  EGFR % Activity Set3: 22%
EGFR; Log[nM] 4.5
  EGFR % Activity Set1: 8%
  EGFR % Activity Set2: 9%
  EGFR % Activity Set3: 8%
EGFR; Log[nM] 5.0
  EGFR % Activity Set1: 4%
  EGFR % Activity Set2: 4%
  EGFR % Activity Set3: 4%
Aurora A kinase (AURKA); [3]
  IC50: 6.68 ± 0.54 µM
Aurora A kinase (AURKA); [4]
  IC50: 6.7 µM
Aurora A kinase (AURKA); Log[nM] 0
  Aurora A % Activity Set1: 104%
  Aurora A % Activity Set2: 94%
  Aurora A % Activity Set3: 88%
Aurora A kinase (AURKA); Log[nM] 1.0
  Aurora A % Activity Set1: 95%
  Aurora A % Activity Set2: 89%
  Aurora A % Activity Set3: 91%
Aurora A kinase (AURKA); Log[nM] 1.5
  Aurora A % Activity Set1: 111%
  Aurora A % Activity Set2: 100%
  Aurora A % Activity Set3: 110%
Aurora A kinase (AURKA); Log[nM] 2.0
  Aurora A % Activity Set1: 100%
  Aurora A % Activity Set2: 95%
  Aurora A % Activity Set3: 96%
Aurora A kinase (AURKA); Log[nM] 2.5
  Aurora A % Activity Set1: 108%
  Aurora A % Activity Set2: 100%
  Aurora A % Activity Set3: 106%
Aurora A kinase (AURKA); Log[nM] 3.0
  Aurora A % Activity Set1: 88%
  Aurora A % Activity Set2: 91%
  Aurora A % Activity Set3: 84%
Aurora A kinase (AURKA); Log[nM] 3.5
  Aurora A % Activity Set1: 86%
  Aurora A % Activity Set2: 80%
  Aurora A % Activity Set3: 76%
Aurora A kinase (AURKA); Log[nM] 4.0
  Aurora A % Activity Set1: 30%
  Aurora A % Activity Set2: 33%
  Aurora A % Activity Set3: 27%
Aurora A kinase (AURKA); Log[nM] 4.5
  Aurora A % Activity Set1: 14%
  Aurora A % Activity Set2: 14%
  Aurora A % Activity Set3: 13%
Aurora A kinase (AURKA); Log[nM] 5.0
  Aurora A % Activity Set1: 8%
  Aurora A % Activity Set2: 6%
  Aurora A % Activity Set3: 4%
